In publication PMC11012124, “Synthesis of Novel Triazine-Based Chalcones and 8,9-dihydro-7H-pyrimido[4,5-b][1,4]diazepines as Potential Leads in the Search of Anticancer, Antibacterial and Antifungal Agents” (International Journal of Molecular Sciences, 2024):

Assays:
UO-31 = assay: cells; conditions: Homo sapiens, UO-31, 48 h; for CC50: read-out: LC50
M14 = assay: cells; conditions: Homo sapiens, M14, 48 h; for CC50: read-out: LC50
SF-295 = assay: cells; conditions: Homo sapiens, SF-295, 48 h; for CC50: read-out: LC50
MDA-MB-468 = assay: cells; conditions: Homo sapiens, MDA-MB-468, 48 h; for CC50: read-out: LC50
LOX IMVI = assay: cells; conditions: Homo sapiens, 48 h; for CC50: read-out: LC50, LOX IMVI, 48 h
NCI-H322M = assay: cells; conditions: Homo sapiens, 48 h; for CC50: read-out: LC50
OVCAR-3 = assay: cells; conditions: Homo sapiens, OVCAR-3, 48 h; for CC50: read-out: LC50
HS 578T = assay: cells; conditions: Homo sapiens, 48 h; for CC50: read-out: LC50
A549/ATCC = assay: cells; conditions: Homo sapiens, A549, 48 h; for CC50: read-out: LC50
UACC-257 = assay: cells; conditions: Homo sapiens, UACC-257, 48 h; for CC50: read-out: LC50
HOP-92 = assay: cells; conditions: Homo sapiens, HOP-92, 48 h; for CC50: read-out: LC50
NCI-H23 = assay: cells; conditions: Homo sapiens, NCI-H23, 48 h; for CC50: read-out: LC50
HCT-116 = assay: cells; conditions: Homo sapiens, HCT-116, 48 h; for CC50: read-out: LC50
MDA-MB-231/ATCC = assay: cells; conditions: Homo sapiens, MDA-MB-231, 48 h; for CC50: read-out: LC50
HCT-15 = assay: cells; conditions: Homo sapiens, HCT-15, 48 h; for CC50: read-out: LC50
SF-539 = assay: cells; conditions: Homo sapiens, SF-539, 48 h; for CC50: read-out: LC50, SF-539, 48 h
SNB-19 = assay: cells; conditions: Homo sapiens, SNB-19, 48 h; for CC50: read-out: LC50
60 cancer cell lines = assay: NCI-60 one-dose screen (10 μM); format: cell-based; conditions: Homo sapiens; one dose of 10 μM, mean over 60 cancer cell lines; read-out: Mean Growth Percent (MGP)
Text: Additionally, the mean of the growth percentages (MGP) of each compound against all the 60 cancer cell lines is also reported, which is used as one of the selection criteria to continue with tests at five concentration doses.

BT-549 = assay: cells; conditions: Homo sapiens, BT-549, 48 h; for CC50: read-out: LC50
A498 = assay: cells; conditions: Homo sapiens, A498, 48 h; for CC50: read-out: LC50
RXF 393 = assay: cells; conditions: Homo sapiens, RXF 393, 48 h; for CC50: read-out: LC50
U251 = assay: cells; conditions: Homo sapiens, U-251, 48 h; for GI50: U251, 48 h; for CC50: read-out: LC50
NCI-H226 = assay: cells; conditions: Homo sapiens, NCI-H226, 48 h; for CC50: read-out: LC50
PC-3 = assay: cells; conditions: Homo sapiens, PC-3, 48 h; for CC50: read-out: LC50
ACHN = assay: cells; conditions: Homo sapiens, 48 h; for CC50: read-out: LC50
SF-268 = assay: cells; conditions: Homo sapiens, SF-268, 48 h; for CC50: read-out: LC50
COLO 205 = assay: cells; conditions: Homo sapiens, COLO 205, 48 h; for CC50: read-out: LC50
SNB-75 = assay: cells; conditions: Homo sapiens, SNB-75, 48 h; for CC50: read-out: LC50
EKVX = assay: cells; conditions: Homo sapiens, 48 h; for CC50: read-out: LC50
UACC-62 = assay: cells; conditions: Homo sapiens, UACC-62, 48 h; for CC50: read-out: LC50
HOP-62 = assay: cells; conditions: Homo sapiens, HOP-62, 48 h; for CC50: read-out: LC50
HCC-2998 = assay: cells; conditions: Homo sapiens, HCC 2998, 48 h; for CC50: read-out: LC50
RPMI-8226 = assay: cells; conditions: Homo sapiens, RPMI-8226, 48 h; for CC50: read-out: LC50
SK-MEL-5 = assay: cells; conditions: Homo sapiens, SK-MEL-5, 48 h; for CC50: read-out: LC50
HT29 = assay: cells; conditions: Homo sapiens, HT-29, 48 h; for CC50: read-out: LC50
786-0 = assay: cells; conditions: Homo sapiens, 786-0, 48 h; for CC50: read-out: LC50
MOLT-4 = assay: cells; conditions: Homo sapiens, MOLT-4, 48 h; for CC50: read-out: LC50

Cc1ccc(/C=C/C(=O)c2ccc(S(=O)(=O)NCCNc3nc(Nc4ccc(F)cc4)nc(N(C)C)n3)cc2)cc1 [24b]
GI50 (UO-31): 6.77 µM
CC50 (UO-31): 44.7 µM
GI50 (M14): 5.91 µM
CC50 (M14): 49.2 µM
GI50 (SF-295): 11.5 µM
CC50 (SF-295): 49.2 µM
GI50 (MDA-MB-468): 4.66 µM
CC50 (MDA-MB-468): 43 µM
GI50 (LOX IMVI): 4.12 µM
CC50 (LOX IMVI): 39.3 µM
GI50 (NCI-H322M): 11.8 µM
CC50 (NCI-H322M): 62.5 µM
GI50 (OVCAR-3): 11.3 µM
CC50 (OVCAR-3): 54.6 µM
GI50 (HS 578T): 10.7 µM
CC50 (HS 578T): > 100 µM
GI50 (A549/ATCC): 10.5 µM
CC50 (A549/ATCC): 77.7 µM
GI50 (UACC-257): 17.4 µM
CC50 (UACC-257): 62.9 µM
GI50 (HOP-92): 7.63 µM
CC50 (HOP-92): 54 µM
GI50 (NCI-H23): 11.3 µM
CC50 (NCI-H23): 50 µM
GI50 (HCT-116): 1.75 µM
CC50 (HCT-116): 6.17 µM
GI50 (MDA-MB-231/ATCC): 6.56 µM
CC50 (MDA-MB-231/ATCC): 48 µM
GI50 (HCT-15): 3.92 µM
CC50 (HCT-15): 35.3 µM
GI50 (SF-539): 13 µM
CC50 (SF-539): 51.7 µM
GI50 (SNB-19): 11 µM
CC50 (SNB-19): 50.2 µM
activity at 10 µM (60 cancer cell lines): 16.5%
GI50 (BT-549): 15.7 µM
CC50 (BT-549): 57.8 µM
GI50 (A498): 12.6 µM
CC50 (A498): 51.4 µM
GI50 (RXF 393): 4.98 µM
CC50 (RXF 393): 44.9 µM
GI50 (U251): 11.6 µM
CC50 (U251): 58.7 µM
GI50 (NCI-H226): 10.4 µM
CC50 (NCI-H226): 63.9 µM
GI50 (PC-3): 3.54 µM
CC50 (PC-3): 89.5 µM
GI50 (ACHN): 6.31 µM
CC50 (ACHN): 44.1 µM
GI50 (SF-268): 8.76 µM
CC50 (SF-268): 90.9 µM
GI50 (COLO 205): 6.51 µM
CC50 (COLO 205): 55.1 µM
GI50 (SNB-75): 7.59 µM
CC50 (SNB-75): > 100 µM
GI50 (EKVX): 4.96 µM
CC50 (EKVX): 43.3 µM
GI50 (UACC-62): 8.4 µM
CC50 (UACC-62): 47.1 µM
GI50 (HOP-62): 15.3 µM
CC50 (HOP-62): 64.8 µM
GI50 (HCC-2998): 4.5 µM
CC50 (HCC-2998): 41 µM
GI50 (RPMI-8226): 2.73 µM
CC50 (RPMI-8226): > 100 µM
GI50 (SK-MEL-5): 8.25 µM
CC50 (SK-MEL-5): 45.9 µM
GI50 (HT29): 2.38 µM
CC50 (HT29): 16.2 µM
GI50 (786-0): 10.5 µM
CC50 (786-0): 51 µM
GI50 (MOLT-4): 3.86 µM
CC50 (MOLT-4): > 100 µM

CN(C)c1nc(NCCNS(=O)(=O)c2ccc(C(=O)/C=C/c3ccccc3)cc2)nc(Nc2ccc(F)cc2)n1 [24a]
GI50 (UO-31): 4.6 µM
CC50 (UO-31): 41.9 µM
GI50 (M14): 5.98 µM
CC50 (M14): 51.5 µM
GI50 (SF-295): 6.96 µM
CC50 (SF-295): 44.5 µM
GI50 (MDA-MB-468): 2.84 µM
CC50 (MDA-MB-468): 37.6 µM
GI50 (LOX IMVI): 2.47 µM
CC50 (LOX IMVI): 27.4 µM
GI50 (NCI-H322M): 9.83 µM
CC50 (NCI-H322M): 76.9 µM
GI50 (OVCAR-3): 8.59 µM
CC50 (OVCAR-3): 48.7 µM
GI50 (HS 578T): 7.39 µM
CC50 (HS 578T): > 100 µM
GI50 (A549/ATCC): 8.33 µM
CC50 (A549/ATCC): 73.5 µM
GI50 (UACC-257): 12.6 µM
CC50 (UACC-257): 61 µM
GI50 (HOP-92): 8.1 µM
CC50 (HOP-92): 60.1 µM
GI50 (NCI-H23): 10.1 µM
CC50 (NCI-H23): 50 µM
GI50 (HCT-116): 1.72 µM
CC50 (HCT-116): 6.1 µM
GI50 (MDA-MB-231/ATCC): 4.84 µM
CC50 (MDA-MB-231/ATCC): 45.8 µM
GI50 (HCT-15): 2.04 µM
CC50 (HCT-15): 7.25 µM
GI50 (SF-539): 12 µM
CC50 (SF-539): 50.2 µM
GI50 (SNB-19): 10.4 µM
CC50 (SNB-19): 51 µM
activity at 10 µM (60 cancer cell lines): 13.6%
GI50 (BT-549): 13.9 µM
CC50 (BT-549): 54.3 µM
GI50 (A498): 11.6 µM
CC50 (A498): 49.7 µM
GI50 (RXF 393): 2.94 µM
CC50 (RXF 393): 39.9 µM
GI50 (U251): 10.4 µM
CC50 (U251): 57.8 µM
GI50 (NCI-H226): 5.22 µM
CC50 (NCI-H226): 57.3 µM
GI50 (PC-3): 4.39 µM
CC50 (PC-3): > 100 µM
GI50 (ACHN): 4.92 µM
CC50 (ACHN): 43.5 µM
GI50 (SF-268): 5.65 µM
CC50 (SF-268): 65.2 µM
GI50 (COLO 205): 5.46 µM
CC50 (COLO 205): 56.7 µM
GI50 (SNB-75): 3.23 µM
CC50 (SNB-75): > 100 µM
GI50 (EKVX): 4.48 µM
CC50 (EKVX): 40.6 µM
GI50 (UACC-62): 6.68 µM
CC50 (UACC-62): 46.9 µM
GI50 (HOP-62): 11.8 µM
CC50 (HOP-62): 60.6 µM
GI50 (HCC-2998): 2.35 µM
CC50 (HCC-2998): 17.9 µM
GI50 (RPMI-8226): 3.04 µM
CC50 (RPMI-8226): > 100 µM
GI50 (SK-MEL-5): 4.7 µM
CC50 (SK-MEL-5): 41.6 µM
GI50 (HT29): 3.08 µM
CC50 (HT29): 73.5 µM
GI50 (786-0): 11.2 µM
CC50 (786-0): 56.9 µM
GI50 (MOLT-4): 3.22 µM
CC50 (MOLT-4): > 100 µM
